The record followed here is ChEMBL document CHEMBL2010711, “Synthesis and comparative evaluation of 4-oxa- and 4-aza-podophyllotoxins as antiproliferative microtubule destabilizing agents” (Bioorg Med Chem Lett, 2012).

Active and inactive are the calls of the source.

Experiment [1] relates to Paracentrotus lividus. In words: Antimitotic activity against Paracentrotus lividus embryo assessed as concentration required to cause 100% cleavage alteration after 2.5 to 6 hrs. In kind it is functional.
Experiment [2] concerns Paracentrotus lividus. In words: Microtubule destabilizing activity in Paracentrotus lividus embryo assessed as concentration required to cause 100% embryo spinning after 15 mins to 20 hrs. The class given is functional.
Experiment [3] concerns Paracentrotus lividus. In words: Antimitotic activity against Paracentrotus lividus embryo assessed as concentration required to cause 100% cleavage arrest after 2.5 to 6 hrs. The class given is functional.
Experiment [4] concerns Paracentrotus lividus. In words: Microtubule destabilizing activity in Paracentrotus lividus embryo assessed as embryo spinning at 2 fold less effective threshold concentration after 15 mins to 20 hrs. The class given is functional, organism-based.
The test system of experiment [5] is Paracentrotus lividus. Description: Antimitotic activity against Paracentrotus lividus embryo assessed as cleavage alteration at 2 fold less effective threshold concentration after 2.5 to 6 hrs. In kind it is functional, organism-based.
Experiment [6] concerns Paracentrotus lividus. Description: Antimitotic activity against Paracentrotus lividus embryo assessed as cleavage arrest at 2 fold less effective threshold concentration after 2.5 to 6 hrs. In kind it is functional, organism-based.

Turning to `COc1ccc2c(c1)NC1=C(C(=O)OC1)C2c1cc(OC)c2c(c1)OCCO2` (configuration not stated), the results for the EC with Paracentrotus lividus [1], in the experiment on Paracentrotus lividus [2] and with Paracentrotus lividus [3] were 10 nM, 1000 nM and 50 nM, respectively. Further, the outcome in the experiment on Paracentrotus lividus [4], in the experiment with Paracentrotus lividus [5] and in the experiment with Paracentrotus lividus [6] was inactive.
Regarding `COc1cc([C@H]2C3=C(COC3=O)Nc3cc4c(cc32)OCO4)cc(OC)c1OC`, the result with Paracentrotus lividus [4], in the experiment with Paracentrotus lividus [5] and in the experiment with Paracentrotus lividus [6] was inactive.
For the compound `COc1ccc2c(c1)C(c1cc(OC)c3c(c1)OCO3)C1=C(COC1=O)O2` (configuration not stated), the EC with Paracentrotus lividus [1] was 50 nM; in the experiment on Paracentrotus lividus [2] it was 2000 nM; in the experiment on Paracentrotus lividus [3], 200 nM. Also, the outcome with Paracentrotus lividus [4], with Paracentrotus lividus [5] and with Paracentrotus lividus [6] was inactive.
For `COc1ccc2c(c1)NC1=C(C(=O)OC1)C2c1cc(OC)c(OC)c(OC)c1` (configuration not stated), the EC with Paracentrotus lividus [1] is reported as 50 nM; with Paracentrotus lividus [2], 500 nM; in the experiment on Paracentrotus lividus [3] it was 500 nM. Also, the result in the experiment on Paracentrotus lividus [4], in the experiment with Paracentrotus lividus [5] and with Paracentrotus lividus [6] was inactive.
In the case of `COc1ccc2c(c1)OC1=C(C(=O)OC1)C2c1cc(OC)c2c(c1OC)OCO2` (configuration not stated), the figures for the EC with Paracentrotus lividus [1], with Paracentrotus lividus [2] and with Paracentrotus lividus [3] were 100 nM, 4000 nM and 500 nM, respectively. Further, the result with Paracentrotus lividus [4], in the experiment with Paracentrotus lividus [5] and in the experiment on Paracentrotus lividus [6] was inactive.
